Where two headings read alike, the source gives them in different places.
Tests used:
L929 cells = experiment: Inhibition of cell necrosis (CCK8 method), L929 cells; assay type: cell-based, mouse; details: Mus musculus, L929, L929, Murine TNF-α/Z-VAD-FMK, 4-8 hours, CCK8
In short: (§1)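 HT29 (1.2×10^4/well) and L929 (2.0×10^4/well) cells were pretreated 30 min with compound, 9-point 4-fold series from 10 μM in duplicate. Necrosis was induced with human TNF-α 20 ng/mL, AT-406 […] and Z-VAD-FMK 20 μM for 16 h (HT29), or murine TNF-α 20 ng/mL and Z-VAD-FMK 25 μM for 4-8 h (L929). CCK8 viability; IC50 from dose-effect curve.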

[1] = Rat PK&BBB (pharmacokinetics and brain penetration); assay type: in vivo, SD rats
Procedure: In this assay, the pharmacokinetic characteristics and ability to penetrate the blood-brain barrier of the compounds of the present application were assayed after administration of some of the compounds of the present application to SD rats, CD-1 mice or beagle dogs by single oral administration and intravenous injection.
1. Intravenous (IV) injection group: an appropriate amount of the assay compound was weighed, and completely dissolved in an appropriate volume of vehicle. The mixture was stirred, vortexed and/or sonicated. Once a solution was obtained, the vehicle was gradually added to a final volume to reach the target concentration. The solution was vortexed, and sonicated to obtain a homogeneous solution. The solution was filtered through a […] PVDF membrane.
2. Oral (PO) group: an appropriate amount of the assay compound was weighed, and completely dissolved in an appropriate volume of vehicle. The mixture was stirred, vortexed and/or sonicated. Once a solution was obtained, the vehicle was gradually added to a final volume to reach the target concentration. The solution was vortexed, and sonicated to obtain a homogeneous solution.
Meanwhile, the IV group was not fasted and the PO group was fasted overnight (>12 hrs) and given food 2 hrs after drug administration. All animals had free access to water. The dosing regimen and pharmacokinetic sampling regimen are given in Table 10 and Table 11 below, respectively.
Rats were administered according to the above protocol, and blood and brain tissue samples were collected and processed at predetermined time points (collection and processing were performed according to conventional methods in the art).
The brain was weighed and homogenized by adding 4 times of ultrapure water. Six times volume of acetonitrile was added respectively to the whole blood samples and brain homogenate (20 times volume of acetonitrile was added to the whole blood sample of mouse PK). The mixture was vortexed for 1 min and then centrifuged at 4° C., 4500 rpm for 15 min. According to the instrument response, the supernatant was diluted with diluent and the sample was analyzed by LC/MS.
Pharmacokinetic parameters were calculated using WinNonlin software. The following pharmacokinetic parameters were calculated if appropriate plasma/whole blood drug concentration-time data were available: CL (clearance); Vd (apparent volume of distribution); T1/2 (elimination half-life time); Cmax (peak concentration); Tmax (time to peak); AUC (area under plasma drug concentration-time curve); MRT (mean retention time); F % (bioavailability).

HT29 cells = experiment: Inhibition of cell necrosis (CCK8 method), HT29 cells; assay type: cell-based, human; details: Homo sapiens, HT-29, 16 h, HT29, Human TNF-α/AT-406/Z-VAD-FMK, 16 hours, CCK8
In short: as §1

[2] = Sprague-Dawley, rat, whole blood, iv, 3 mg/kg, IV 3 mg/kg, read-out: Blood drug concentration
[3] = Sprague-Dawley, rat, whole blood, po, 30 mg/kg, PO 30 mg/kg, read-out: Blood drug concentration

Compound O=C(C1CCN(c2cc(-c3cc(OCCCO)ccc3F)ccn2)CC1)N1N=CC[C@H]1c1cc(F)cc(F)c1 (racemic) [Example 40] has an IC50 (L929 cells) of 10 to 50 nM, an AUC(0-inf) ([1]; SD, whole blood, IV 3 mg/kg) of 592 ± 57 ng·h/mL and an AUC(0-t) ([1]; SD, whole blood, IV 3 mg/kg) of 588 ± 56 ng·h/mL. It also gave a Vd ([1]; SD, whole blood, IV 3 mg/kg) of 7.84 ± 0.5 L/kg, a half-life ([1]; SD, whole blood, IV 3 mg/kg) of 1.07 ± 0.08 h and a clearance ([1]; SD, whole blood, IV 3 mg/kg, read-out: Cl—obs) of 85 ± 8.4 mL/min/kg. The AUC(0-inf) ([1]; SD, whole blood, PO 30 mg/kg) was 1970 ± 768 ng·h/mL, the AUC(0-t) ([1]; SD, whole blood, PO 30 mg/kg) was 1900 ± 868 ng·h/mL and the Cmax ([1]; SD, whole blood, PO 30 mg/kg) was 581 ± 228 ng/mL. For the same compound, the Tmax ([1]; SD, whole blood, PO 30 mg/kg) was 1.17 ± 0.76 h, the half-life ([1]; SD, whole blood, PO 30 mg/kg) was 2.84 ± 0.46 h and the bioavailability ([1]; SD, whole blood, PO 30 mg/kg vs IV 3 mg/kg) was 33.2 ± 13%. For the same compound, the Kp at 2 h ([1]; Sprague-Dawley, brain / whole blood, PO 30 mg/kg, 2 h after administration, read-out: Brain/blood ratio) was 1.13, the concentration at 2 h ([1]; Sprague-Dawley, rat, brain, po, 30 mg/kg, PO 30 mg/kg, 2 h after administration, read-out: Brain concentration) was 309 ng/g and the concentration at 0 h [1, 2] was 0 ng/mL. The concentration at 0.083 h ([1]; Sprague-Dawley, rat, whole blood, iv, 3 mg/kg, IV 3 mg/kg, 0.083 hr, read-out: Blood drug concentration) was 865 ± 45 ng/mL, the concentration at 0.25 h [1, 2] was 496 ± 33 ng/mL and the concentration at 0.5 h [1, 2] was 295 ± 29 ng/mL. It also gave a concentration at 1 h [1, 2] of 119 ± 14 ng/mL, a concentration at 2 h ([1]; Sprague-Dawley, rat, whole blood, iv, 3 mg/kg, IV 3 mg/kg, 2 hr, read-out: Blood drug concentration) of 61.9 ± 8.5 ng/mL and a concentration at 4 h [1, 2] of 13.2 ± 5 ng/mL. For the same compound, the concentration at 7 h [1, 2] was 2.37 ± 0.77 ng/mL, the concentration at 0 h [1, 3] was 0 ng/mL and the concentration at 0.25 h [1, 3] was 185 ± 86 ng/mL. For the same compound, the concentration at 0.5 h [1, 3] was 416 ± 92 ng/mL, the concentration at 1 h [1, 3] was 547 ± 248 ng/mL and the concentration at 2 h ([1]; Sprague-Dawley, rat, whole blood, po, 30 mg/kg, PO 30 mg/kg, 2 hr, read-out: Blood drug concentration) was 372 ± 258 ng/mL. The concentration at 4 h [1, 3] was 109 ± 99 ng/mL, the concentration at 7 h [1, 3] was 59.8 ± 34.9 ng/mL and the concentration at 24 h ([1]; Sprague-Dawley, rat, whole blood, po, 30 mg/kg, PO 30 mg/kg, 24 hr, read-out: Blood drug concentration) was 0.93 ng/mL. The concentration at 2 h ([1]; Sprague-Dawley, rat, whole blood, po, 30 mg/kg, PO 30 mg/kg, whole blood, 2 h after administration, read-out: Blood drug concentration) was 274 ng/mL and the IC50 (HT29 cells) was at most 10 nM.

Reference: patent publication US20250074892A1, “CARBONYL BRIDGED HETEROCYCLIC COMPOUND, AND COMPOSITION AND APPLICATION THEREOF” (BEIJING SCITECH-MQ PHARMACEUTICALS LIMITED, priority 2022, published 2025)
